Experimental findings from ChEMBL document CHEMBL3751822, “C1C2-linker substituted 1,5-naphthyridine analogues of oxabicyclooctane-linked NBTIs as broad-spectrum antibacterial agents (part 7)” (Medchemcomm, 2015) are described below.

Assay [1] has as its system Staphylococcus aureus. Briefly: Antibacterial activity against methicillin resistant Staphylococcus aureus OIT971 by micro-broth dilution method. The assay is classed as functional. On the technique in general: Dilution methods test growth across graded concentrations, often in twofold steps.
The target of assay [2] is Voltage-gated inwardly rectifying potassium channel KCNH2 (Homo sapiens, UniProt Q12809). Briefly: Displacement of MK499 from human ERG.
Chain of Voltage-gated inwardly rectifying potassium channel KCNH2 (Q12809 whole entry): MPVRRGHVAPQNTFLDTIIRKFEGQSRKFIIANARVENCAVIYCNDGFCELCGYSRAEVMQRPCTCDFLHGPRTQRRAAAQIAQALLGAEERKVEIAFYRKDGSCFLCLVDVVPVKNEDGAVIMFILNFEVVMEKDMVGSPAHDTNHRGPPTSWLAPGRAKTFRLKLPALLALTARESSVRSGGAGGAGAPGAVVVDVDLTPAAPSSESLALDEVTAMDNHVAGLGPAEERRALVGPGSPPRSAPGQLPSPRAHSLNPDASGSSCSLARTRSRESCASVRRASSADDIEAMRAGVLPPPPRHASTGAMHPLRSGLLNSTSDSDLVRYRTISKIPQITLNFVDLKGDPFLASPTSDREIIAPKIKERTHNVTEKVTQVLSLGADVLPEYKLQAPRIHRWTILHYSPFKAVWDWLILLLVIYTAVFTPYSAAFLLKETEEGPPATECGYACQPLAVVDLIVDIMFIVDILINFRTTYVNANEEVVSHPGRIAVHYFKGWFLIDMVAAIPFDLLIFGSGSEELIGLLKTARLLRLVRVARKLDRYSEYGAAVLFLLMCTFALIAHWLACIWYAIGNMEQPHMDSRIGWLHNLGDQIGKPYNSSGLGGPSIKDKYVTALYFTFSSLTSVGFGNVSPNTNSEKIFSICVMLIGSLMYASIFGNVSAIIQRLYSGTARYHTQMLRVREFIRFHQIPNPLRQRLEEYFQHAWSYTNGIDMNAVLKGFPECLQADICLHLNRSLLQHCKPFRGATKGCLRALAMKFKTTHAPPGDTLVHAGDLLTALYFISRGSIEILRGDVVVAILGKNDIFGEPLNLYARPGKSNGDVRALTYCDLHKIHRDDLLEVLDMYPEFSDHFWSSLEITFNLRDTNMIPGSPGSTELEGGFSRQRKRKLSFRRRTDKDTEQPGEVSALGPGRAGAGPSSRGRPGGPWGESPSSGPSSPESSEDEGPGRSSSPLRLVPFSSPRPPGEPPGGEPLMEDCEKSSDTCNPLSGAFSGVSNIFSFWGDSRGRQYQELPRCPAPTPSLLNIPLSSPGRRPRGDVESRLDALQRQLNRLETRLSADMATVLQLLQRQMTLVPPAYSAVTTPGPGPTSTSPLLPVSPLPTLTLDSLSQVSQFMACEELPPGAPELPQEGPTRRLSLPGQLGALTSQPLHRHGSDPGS
In assay [3] the test system is Staphylococcus aureus. Briefly: Antibacterial activity against Staphylococcus aureus Smith by micro-broth dilution method. In kind it is functional.
The next assay relates to Enterococcus faecium. As to the kind of experiment: Antibacterial activity against Enterococcus faecium VanA by micro-broth dilution method. The assay is classed as functional.
The next assay concerns Acinetobacter baumannii. As to the kind of experiment: Antibacterial activity against Acinetobacter baumannii IID876 by micro-broth dilution method. The assay is classed as functional.
The next assay deals with Pseudomonas aeruginosa. As to the kind of experiment: Antibacterial activity against Pseudomonas aeruginosa PAO1 by micro-broth dilution method. The assay is classed as functional.
In another assay the test system is Escherichia coli. As to the kind of experiment: Antibacterial activity against Escherichia coli ATCC 25922 by micro-broth dilution method. In kind it is functional.
The test system of another assay is Streptococcus pneumoniae. As to the kind of experiment: Antibacterial activity against Streptococcus pneumoniae IID553 by micro-broth dilution method. In kind it is functional.
The subject of assay [4] is Staphylococcus aureus. As to the kind of experiment: Ratio of MIC for quinolone-resistant Staphylococcus aureus MS5935 to MIC for quinolone-sensitive Staphylococcus aureus MS5935. The assay is classed as functional.
The mark [5] stands for this setting: Staphylococcus aureus, OIT971, read-out: MIC.
The mark [6] stands for this setting: Staphylococcus aureus, Smith, read-out: MIC.
Setting [7] is: Enterococcus faecium, VanA, read-out: MIC.
[8] abbreviates: Acinetobacter baumannii, IID876, read-out: MIC.
The mark [9] stands for this setting: Pseudomonas aeruginosa, PAO1, read-out: MIC.
The mark [10] stands for this setting: Escherichia coli, ATCC 25922, read-out: MIC.
[11] abbreviates: Streptococcus pneumoniae, IID553, read-out: MIC.

A word on the MIC: it is the lowest concentration found to suppress growth. For orientation: IC50 means the midpoint of a concentration-inhibition curve.

Values after ≈ are worked out from the molar mass of the structure shown.

Turning to `COc1ccc2ncc(F)c(C(O)CC34CCC(NCc5ccc6c(n5)NC(=O)CO6)(CC3)CO4)c2n1` (single isomer, unassigned; (-)), the MIC was 0.03 µg/mL (≈ 0.0589 µM) in the assay with Staphylococcus aureus [1]; 0.03 µg/mL (≈ 0.0589 µM) against Staphylococcus aureus [3]; 2 µg/mL (≈ 3.93 µM) in the assay with Enterococcus faecium; 1 µg/mL (≈ 1.96 µM) in the assay with Acinetobacter baumannii; 16 µg/mL (≈ 31.4 µM) against Pseudomonas aeruginosa; 4 µg/mL (≈ 7.85 µM) in the assay on Escherichia coli. In addition, the MIC in the assay with Streptococcus pneumoniae was 0.25 µg/mL (≈ 0.491 µM). The molecule further displayed an IC50 in [2] of 1.3 µM.
`COc1ccc2ncc(F)c(CC(=O)C34CCC(NCc5ccc6c(n5)NC(=O)CO6)(CC3)CO4)c2n1`: the MIC in the assay with Staphylococcus aureus [1] (setting [5]) was 0.13 µg/mL (≈ 0.256 µM); in the assay on Staphylococcus aureus [3] (setting [6]) it was 0.13 µg/mL (≈ 0.256 µM); in the assay on Enterococcus faecium (setting [7]), 4 µg/mL (≈ 7.88 µM); in the assay with Acinetobacter baumannii (setting [8]), 2 µg/mL (≈ 3.94 µM); in the assay on Pseudomonas aeruginosa (setting [9]), 16 µg/mL (≈ 31.5 µM); in the assay on Escherichia coli (setting [10]), 16 µg/mL (≈ 31.5 µM). Moreover, the MIC in the assay on Streptococcus pneumoniae (setting [11]) was 0.25 µg/mL (≈ 0.493 µM).
As to `COc1ccc2ncc(F)c(C(CC34CCC(NCc5ccc6c(n5)NC(=O)CO6)(CC3)CO4)C(=O)O)c2n1` (racemic), the Ratio with Staphylococcus aureus [4] is on record as below 4. The minimal inhibitory concentration (MIC) in the assay on Staphylococcus aureus [1] (setting [5]) came to 1 µg/mL (≈ 1.86 µM); in the assay on Staphylococcus aureus [3] (setting [6]), 1 µg/mL (≈ 1.86 µM); with Enterococcus faecium (setting [7]), 32 µg/mL (≈ 59.5 µM); with Acinetobacter baumannii (setting [8]), 32 µg/mL (≈ 59.5 µM); in the assay on Pseudomonas aeruginosa (setting [9]), 32 µg/mL (≈ 59.5 µM); with Escherichia coli (setting [10]) it was 32 µg/mL (≈ 59.5 µM). The MIC in the assay with Streptococcus pneumoniae (setting [11]) is 4 µg/mL (≈ 7.44 µM). Further, the IC50 in [2] came out at 1 µM.
For the molecule `COc1ccc2ncc(F)c(CC(OCC(=O)O)C34CCC(NCc5ccc6c(n5)NC(=O)CO6)(CC3)CO4)c2n1` (racemic), the minimal inhibitory concentration (MIC) stood at 4 µg/mL (≈ 7.05 µM) in the assay with Staphylococcus aureus [1] (setting [5]); 4 µg/mL (≈ 7.05 µM) in the assay on Staphylococcus aureus [3] (setting [6]); 32 µg/mL (≈ 56.4 µM) in the assay with Enterococcus faecium (setting [7]); 32 µg/mL (≈ 56.4 µM) in the assay with Acinetobacter baumannii (setting [8]); 32 µg/mL (≈ 56.4 µM) with Pseudomonas aeruginosa (setting [9]); 32 µg/mL (≈ 56.4 µM) with Escherichia coli (setting [10]). In addition, in the assay with Streptococcus pneumoniae (setting [11]), the MIC is 32 µg/mL (≈ 56.4 µM).
As to `COc1ccc2ncc(F)c(CC(N)C34CCC(NCc5ccc6c(n5)NC(=O)CO6)(CC3)CO4)c2n1` (single isomer, unassigned; (+)), the MIC is 0.25 µg/mL (≈ 0.492 µM) with Staphylococcus aureus [1] (setting [5]); 0.25 µg/mL (≈ 0.492 µM) with Staphylococcus aureus [3] (setting [6]); 8 µg/mL (≈ 15.7 µM) in the assay on Enterococcus faecium (setting [7]); 0.25 µg/mL (≈ 0.492 µM) in the assay on Acinetobacter baumannii (setting [8]); 16 µg/mL (≈ 31.5 µM) in the assay on Pseudomonas aeruginosa (setting [9]); 1 µg/mL (≈ 1.97 µM) with Escherichia coli (setting [10]). The MIC in the assay with Streptococcus pneumoniae (setting [11]) was 2 µg/mL (≈ 3.93 µM).
Regarding `CCOC(=O)C(CC12CCC(NCc3ccc4c(n3)NC(=O)CO4)(CC1)CO2)c1c(F)cnc2ccc(OC)nc12` (racemic), the MIC in the assay with Staphylococcus aureus [1] (setting [5]) is 2 µg/mL (≈ 3.54 µM); with Staphylococcus aureus [3] (setting [6]) it was 2 µg/mL (≈ 3.54 µM); in the assay with Enterococcus faecium (setting [7]), 32 µg/mL (≈ 56.6 µM); in the assay on Acinetobacter baumannii (setting [8]) it was 32 µg/mL (≈ 56.6 µM); in the assay with Pseudomonas aeruginosa (setting [9]), 32 µg/mL (≈ 56.6 µM); in the assay on Escherichia coli (setting [10]), 32 µg/mL (≈ 56.6 µM). For the same molecule, in the assay with Streptococcus pneumoniae (setting [11]), the MIC was determined as 8 µg/mL (≈ 14.1 µM).
Consider `COc1ccc2ncc(F)c([C@H](O)[C@@H](O)C34CCC(NCc5ccc6c(n5)NC(=O)CO6)(CC3)CO4)c2n1` (single isomer, unassigned; (-)), for which the Ratio in the assay with Staphylococcus aureus [4] is below 4. Also, the MIC came to 1 µg/mL (≈ 1.9 µM) in the assay on Staphylococcus aureus [1] (setting [5]); 1 µg/mL (≈ 1.9 µM) in the assay on Staphylococcus aureus [3] (setting [6]); 16 µg/mL (≈ 30.4 µM) in the assay on Enterococcus faecium (setting [7]); 2 µg/mL (≈ 3.81 µM) with Acinetobacter baumannii (setting [8]); 64 µg/mL (≈ 122 µM) in the assay with Pseudomonas aeruginosa (setting [9]); 16 µg/mL (≈ 30.4 µM) in the assay on Escherichia coli (setting [10]). Further, in the assay with Streptococcus pneumoniae (setting [11]), the MIC is 8 µg/mL (≈ 15.2 µM). The same molecule returned an IC50 in assay [2] of 36.1 µM.
Take `COc1ccc2ncc(F)c(C(CO)CC34CCC(NCc5ccc6c(n5)NC(=O)CO6)(CC3)CO4)c2n1` (racemic): the MIC was determined as 1 µg/mL (≈ 1.91 µM) in the assay on Staphylococcus aureus [1] (setting [5]); 1 µg/mL (≈ 1.91 µM) in the assay on Staphylococcus aureus [3] (setting [6]); 16 µg/mL (≈ 30.6 µM) in the assay with Enterococcus faecium (setting [7]); 16 µg/mL (≈ 30.6 µM) in the assay on Acinetobacter baumannii (setting [8]); 32 µg/mL (≈ 61.1 µM) in the assay on Pseudomonas aeruginosa (setting [9]); 32 µg/mL (≈ 61.1 µM) in the assay with Escherichia coli (setting [10]). In addition, in the assay on Streptococcus pneumoniae (setting [11]), the MIC is 2 µg/mL (≈ 3.82 µM).
On to `COc1ccc2ncc(F)c([C@@H](O)[C@H](O)C34CCC(NCc5ccc6c(n5)NC(=O)CO6)(CC3)CO4)c2n1`, for which the Ratio in the assay on Staphylococcus aureus [4] was below 4. The MIC amounted to 0.25 µg/mL (≈ 0.476 µM) in the assay with Staphylococcus aureus [1] (setting [5]); 0.25 µg/mL (≈ 0.476 µM) in the assay with Staphylococcus aureus [3] (setting [6]); 8 µg/mL (≈ 15.2 µM) with Enterococcus faecium (setting [7]); 2 µg/mL (≈ 3.81 µM) with Acinetobacter baumannii (setting [8]); 32 µg/mL (≈ 60.9 µM) with Pseudomonas aeruginosa (setting [9]); 16 µg/mL (≈ 30.4 µM) in the assay with Escherichia coli (setting [10]). Further, in the assay with Streptococcus pneumoniae (setting [11]), the minimum inhibitory concentration (MIC) came to 2 µg/mL (≈ 3.81 µM). Moreover, the IC50 in assay [2] is 60 µM.
With `COc1ccc2ncc(F)c(CC(NS(C)(=O)=O)C34CCC(NCc5ccc6c(n5)NC(=O)CO6)(CC3)CO4)c2n1` (racemic), the MIC in the assay on Staphylococcus aureus [1] (setting [5]), in the assay on Staphylococcus aureus [3] (setting [6]), in the assay on Enterococcus faecium (setting [7]), in the assay with Acinetobacter baumannii (setting [8]), with Pseudomonas aeruginosa (setting [9]) and in the assay with Escherichia coli (setting [10]) was 32 µg/mL (≈ 54.5 µM) throughout. Besides, in the assay on Streptococcus pneumoniae (setting [11]), the MIC was 32 µg/mL (≈ 54.5 µM).
As to `COc1ccc2ncc(F)c(CC(O)(C(F)(F)F)C34CCC(NCc5ccc6c(n5)NC(=O)CO6)(CC3)CO4)c2n1` (racemic), the MIC in the assay with Staphylococcus aureus [1] (setting [5]) is 0.5 µg/mL (≈ 0.866 µM); with Staphylococcus aureus [3] (setting [6]), 0.5 µg/mL (≈ 0.866 µM); in the assay with Enterococcus faecium (setting [7]) it was 32 µg/mL (≈ 55.4 µM); with Acinetobacter baumannii (setting [8]), 32 µg/mL (≈ 55.4 µM); in the assay on Pseudomonas aeruginosa (setting [9]) it was 32 µg/mL (≈ 55.4 µM); with Escherichia coli (setting [10]) it was 32 µg/mL (≈ 55.4 µM). The MIC in the assay with Streptococcus pneumoniae (setting [11]) was 4 µg/mL (≈ 6.93 µM).
